Here are results for 24 compounds from patent US20250270209A1 (INTERLINE THERAPEUTICS, INC., priority 2022, published 2025).

What is called pIC50 is −log10 of the IC50, conventionally taken in molar units.

Molecules are shown by their SMILES. pIC50: −log10 of the molar value.

In one assay the target is LRRK2 wild type enzyme (Homo sapiens, UniProt Q5S007). The experiment in a line: Biochemical Assay: LRRK2 TR-FRET (LanthaScreen) kinase assay with LRRKtide substrate. Particulars: LRRK2 Inhibition, Table 8. The method, boiled down: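 TR-FRET detection (Tb-labelled phospho-LRRKtide antibody, EDTA stop, 30 min) followed a 120 min, 23 °C reaction of 3 nM wild-type human LRRK2 with LRRKtide (400 nM) and ATP (25 μM) in Tris pH 8.0. Compounds: 11-point 3-fold series from 10 μM, 15 min enzyme preincubation.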
LRRK2 wild type enzyme, sequence (Q5S007 whole entry): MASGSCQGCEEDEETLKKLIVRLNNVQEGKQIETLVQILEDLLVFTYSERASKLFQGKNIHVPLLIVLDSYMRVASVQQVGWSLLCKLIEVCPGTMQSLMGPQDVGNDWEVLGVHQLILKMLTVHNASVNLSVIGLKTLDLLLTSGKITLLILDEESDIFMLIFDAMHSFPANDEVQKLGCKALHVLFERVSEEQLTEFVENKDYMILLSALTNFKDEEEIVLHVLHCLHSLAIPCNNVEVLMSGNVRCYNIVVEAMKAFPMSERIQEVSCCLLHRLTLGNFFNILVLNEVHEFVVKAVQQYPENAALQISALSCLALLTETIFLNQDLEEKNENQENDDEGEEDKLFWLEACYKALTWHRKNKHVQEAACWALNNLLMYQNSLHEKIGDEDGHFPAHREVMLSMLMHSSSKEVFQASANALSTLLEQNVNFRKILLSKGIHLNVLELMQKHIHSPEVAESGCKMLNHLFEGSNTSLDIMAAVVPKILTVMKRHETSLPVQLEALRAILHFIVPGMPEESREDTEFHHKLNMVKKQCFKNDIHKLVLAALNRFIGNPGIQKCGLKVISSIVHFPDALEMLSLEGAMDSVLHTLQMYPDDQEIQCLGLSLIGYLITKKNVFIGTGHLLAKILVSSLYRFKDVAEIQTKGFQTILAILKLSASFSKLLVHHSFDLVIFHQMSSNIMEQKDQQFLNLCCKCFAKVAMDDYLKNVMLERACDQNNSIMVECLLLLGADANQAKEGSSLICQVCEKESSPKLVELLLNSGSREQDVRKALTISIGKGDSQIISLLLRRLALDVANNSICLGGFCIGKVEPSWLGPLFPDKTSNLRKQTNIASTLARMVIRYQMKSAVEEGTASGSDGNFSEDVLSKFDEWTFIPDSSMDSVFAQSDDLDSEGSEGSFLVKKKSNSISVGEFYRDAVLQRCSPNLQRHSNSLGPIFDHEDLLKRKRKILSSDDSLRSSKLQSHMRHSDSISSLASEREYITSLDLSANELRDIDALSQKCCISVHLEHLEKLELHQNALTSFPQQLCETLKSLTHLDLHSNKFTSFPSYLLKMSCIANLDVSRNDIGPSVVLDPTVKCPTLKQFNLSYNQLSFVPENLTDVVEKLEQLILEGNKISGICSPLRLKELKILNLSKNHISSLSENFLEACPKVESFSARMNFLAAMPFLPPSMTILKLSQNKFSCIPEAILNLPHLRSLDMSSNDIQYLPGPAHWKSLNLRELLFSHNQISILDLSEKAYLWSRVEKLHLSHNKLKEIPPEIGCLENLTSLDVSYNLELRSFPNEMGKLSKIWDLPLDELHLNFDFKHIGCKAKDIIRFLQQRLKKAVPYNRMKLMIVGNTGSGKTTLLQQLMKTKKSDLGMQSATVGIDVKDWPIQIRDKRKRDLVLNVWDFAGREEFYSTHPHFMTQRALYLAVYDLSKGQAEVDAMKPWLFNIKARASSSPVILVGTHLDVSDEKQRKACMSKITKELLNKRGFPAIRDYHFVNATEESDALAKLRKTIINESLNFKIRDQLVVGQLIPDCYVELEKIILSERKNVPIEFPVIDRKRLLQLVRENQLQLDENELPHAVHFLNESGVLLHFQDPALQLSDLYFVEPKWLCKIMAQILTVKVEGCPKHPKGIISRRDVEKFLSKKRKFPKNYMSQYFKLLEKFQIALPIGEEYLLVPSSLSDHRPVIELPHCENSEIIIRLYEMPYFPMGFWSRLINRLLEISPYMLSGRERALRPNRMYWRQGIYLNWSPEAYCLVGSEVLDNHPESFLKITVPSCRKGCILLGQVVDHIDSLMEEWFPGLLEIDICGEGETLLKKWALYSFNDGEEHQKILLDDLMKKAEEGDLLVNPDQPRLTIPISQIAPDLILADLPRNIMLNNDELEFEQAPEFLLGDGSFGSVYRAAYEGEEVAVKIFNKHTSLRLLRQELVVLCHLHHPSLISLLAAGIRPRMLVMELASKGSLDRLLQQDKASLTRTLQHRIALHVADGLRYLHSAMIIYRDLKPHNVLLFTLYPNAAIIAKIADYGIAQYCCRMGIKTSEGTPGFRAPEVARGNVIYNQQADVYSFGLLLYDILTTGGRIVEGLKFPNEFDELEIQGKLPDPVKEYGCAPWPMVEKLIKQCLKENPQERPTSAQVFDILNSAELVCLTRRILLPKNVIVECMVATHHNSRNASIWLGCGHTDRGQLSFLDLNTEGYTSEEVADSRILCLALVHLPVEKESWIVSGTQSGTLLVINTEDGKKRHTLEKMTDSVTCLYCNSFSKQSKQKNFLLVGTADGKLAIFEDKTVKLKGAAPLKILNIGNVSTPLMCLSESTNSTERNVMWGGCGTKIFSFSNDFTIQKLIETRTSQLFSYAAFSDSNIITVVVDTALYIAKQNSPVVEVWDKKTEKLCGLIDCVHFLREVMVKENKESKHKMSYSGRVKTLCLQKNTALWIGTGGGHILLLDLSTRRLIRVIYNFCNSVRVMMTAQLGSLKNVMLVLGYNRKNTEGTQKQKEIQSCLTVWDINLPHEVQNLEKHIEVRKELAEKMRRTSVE
(In general: TR-FRET usually uses a lanthanide donor and a delayed reading to cut background.)

Assay [1] deals with T1, wild type LRRK2 overexpressed in recombinant HEK-293T cells (Homo sapiens, UniProt Q5S007).
T1 construct: host or cells: HEK293T (transient transfection with pCMV-LRRK2 WT plasmid)
T1 sequence (Q5S007 whole entry): as above
The assay is described as follows: pS935 LRRK2 Cell Assay (HTRF, phospho-LRRK2 Ser935). Particulars: LRRK2 Inhibition, Table 8, 2 hours compound incubation. Type of assay: cell-based. The method, boiled down: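 Phospho-Ser935 LRRK2 measured by two-antibody HTRF (Eu-cryptate donor, d2 acceptor; 665/615 nm ratio) after overnight detection at 23° C. Before lysis, transiently LRRK2-transfected HEK-293T cells were exposed 2 h at 37° C to a 9-point, 3-fold series from 10 μM, with DMSO at 0.2%.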

Take `C[C@@H]1C[C@H](n2c(CC(=O)NCC(F)(F)F)nc3cnc4ccc(C#N)cc4c32)CCO1` [Compound 186, 2-{8-cyano-1-[(2R,4R)-2-methyloxan-4-yl]-1H-imidazo[4,5-c]quinolin-2-yl}-N-(2,2,2-trifluoroethyl)acetamide]: the pIC50 against LRRK2 wild type enzyme is 9.25; in assay [1], 7.36.
Taken in the same sequence, the figures for `Cc1nn(C)c(Cl)c1NC(=O)Cc1nc2cnc3ccc(C#N)cc3c2n1[C@@H]1CCO[C@H](C)C1` [Compound 296, N-(5-chloro-1-methyl-3-methyl-4-pyrazolyl){3-[(2R,4R)-2-methyltetrahydro-2H-pyran-4-yl]-12-cyano-3,5,8-triazatricyclo[7.4.0.0^2,6]trideca-1,4,6,8,10,12-hexaen-4-yl}acetamide] were 9.34 and 8.12.
In the case of `C[C@@H]1C[C@H](n2c(C3CCN(C(=O)c4cccnn4)CC3)nc3cnc4ccc(C#N)cc4c32)CCO1` [Compound 117, 1-[(2R,4R)-2-methyloxan-4-yl]-2-[1-(pyridazine-3-carbonyl)piperidin-4-yl]-1H-imidazo[4,5-c]quinoline-8-carbonitrile], the pIC50 is 8.91 on LRRK2 wild type enzyme and 6.30 in assay [1].
Taken in the same sequence, the figures for `C[C@@H]1C[C@H](n2c(CC(=O)N[C@@H]3C[C@H]3c3cccnc3)nc3cnc4ccc(C#N)cc4c32)CCO1` [Compound 365, N-[(1R,2S)-2-(3-pyridyl)cyclopropyl]{3-[(2R,4R)-2-methyltetrahydro-2H-pyran-4-yl]-12-cyano-3,5,8-triazatricyclo[7.4.0.0^2,6]trideca-1(13),2(6),4,7,9,11-hexaen-4-yl}acetamide] were 9.27 and 7.63.
Taken in the same sequence, the figures for `C[C@@H]1C[C@H](n2c(CC(=O)NCC3CCCCO3)nc3cnc4ccc(C#N)cc4c32)CCO1` (stereo partly drawn) [Compound 143, 2-{8-cyano-1-[(2R,4R)-2-methyloxan-4-yl]-1H-imidazo[4,5-c]quinolin-2-yl}-N-[(oxan-2-yl)methyl]acetamide] were 9.27 and 7.94.
Taken in the same sequence, the figures for `C[C@@H]1C[C@H](n2c(CC(=O)Nc3cnc(C(F)(F)F)nc3)nc3cnc4ccc(C#N)cc4c32)CCO1` [Compound 321, N-[2-(trifluoromethyl)-5-pyrimidinyl]{3-[(2R,4R)-2-methyltetrahydro-2H-pyran-4-yl]-12-cyano-3,5,8-triazatricyclo[7.4.0.0^2,6]trideca-1(9),2(6),4,7,10,12-hexaen-4-yl}acetamide] were 9.18 and 7.60.
With `C[C@@H]1C[C@H](n2c(CN3CCCS3(=O)=O)nc3cnc4ccc(C#N)cc4c32)CCO1` [Compound 75, 2-[(1,1-dioxo-126,2-thiazolidin-2-yl)methyl]-1-[(2R,4R)-2-methyloxan-4-yl]-1H-imidazo[4,5-c]quinoline-8-carbonitrile], the figures for the pIC50 (against LRRK2 wild type enzyme; in assay [1]) were 7.95 and 6.23, respectively.
Consider `C[C@@H]1C[C@H](n2c(CC(=O)Nc3ccn(C)c(=O)c3)nc3cnc4ccc(Cl)cc4c32)CCO1` [Compound 212, N-(1-methyl-2-oxo-1,2-dihydro-4-pyridyl){3-[(2R,4R)-2-methyltetrahydro-2H-pyran-4-yl]-12-chloro-3,5,8-triazatricyclo[7.4.0.0^2,6]trideca-1,4,6,8,10,12-hexaen-4-yl}acetamide], for which the pIC50 against LRRK2 wild type enzyme was 9.48; in assay [1], 7.94.
For the compound `C[C@@H]1C[C@H](n2c(CC(=O)Nc3cccnc3)nc3cnc4ccc(Cl)cc4c32)CCO1` [Compound 325, N-3-pyridyl{3-[(2R,4R)-2-methyltetrahydro-2H-pyran-4-yl]-12-chloro-3,5,8-triazatricyclo[7.4.0.0^2,6]trideca-1(9),2(6),4,7,10,12-hexaen-4-yl}acetamide], the pIC50 is 9.36 at LRRK2 wild type enzyme and 8.60 in assay [1].
Taken in the same sequence, the figures for `C[C@@H]1C[C@H](n2c([C@@H]3CCN(S(C)(=O)=O)C3)nc3cnc4ccc(C#N)cc4c32)CCO1` [Compound 38, 2-[(3R)-1-methanesulfonylpyrrolidin-3-yl]-1-[(2R,4R)-2-methyloxan-4-yl]-1H-imidazo[4,5-c]quinoline-8-carbonitrile] were 8.14 and 6.11.
Turning to `C[C@@H]1C[C@H](n2c(CC(=O)Nc3cnoc3)nc3cnc4ccc(C#N)cc4c32)CCO1` [Compound 180, 2-{8-cyano-1-[(2R,4R)-2-methyloxan-4-yl]-1H-imidazo[4,5-c]quinolin-2-yl}-N-(1,2-oxazol-4-yl)acetamide], the pIC50 at LRRK2 wild type enzyme was 9.36; in assay [1], 7.67.
Taken in the same sequence, the figures for `C[C@@H]1C[C@H](n2c(CNC(=O)C3CC3)nc3cnc4ccc(C#N)cc4c32)CCO1` [Compound 17, N-({8-cyano-1-[(2R,4R)-2-methyloxan-4-yl]-1H-imidazo[4,5-c]quinolin-2-yl}methyl)cyclopropanecarboxamide] were 8.18 and 6.32.
Take `COc1nccnc1NC(=O)Cc1nc2cnc3ccc(C#N)cc3c2n1[C@@H]1CCO[C@H](C)C1` [Compound 312, N-(3-methoxy-2-pyrazinyl){3-[(2R,4R)-2-methyltetrahydro-2H-pyran-4-yl]-12-cyano-3,5,8-triazatricyclo[7.4.0.0^2,6]trideca-1(9),2(6),4,7,10,12-hexaen-4-yl}acetamide]: the pIC50 on LRRK2 wild type enzyme is 9.24; in assay [1] it was 8.25.
Taken in the same sequence, the figures for `C[C@@H]1C[C@H](n2c(CC(=O)NCC(F)(F)CO)nc3cnc4ccc(C#N)cc4c32)CCO1` [Compound 233, N-(2,2-difluoro-3-hydroxypropyl){3-[(2R,4R)-2-methyltetrahydro-2H-pyran-4-yl]-12-cyano-3,5,8-triazatricyclo[7.4.0.0^2,6]trideca-1,4,6,8,10,12-hexaen-4-yl}acetamide] were 9.08 and 6.61.
Taken in the same sequence, the figures for `C[C@@H]1C[C@H](n2c(CC(=O)NCC3(CO)CC3)nc3cnc4ccc(C#N)cc4c32)CCO1` [Compound 242, N-[1-(hydroxymethyl)cyclopropyl]methyl{3-[(2R,4R)-2-methyltetrahydro-2H-pyran-4-yl]-12-cyano-3,5,8-triazatricyclo[7.4.0.0^2,6]trideca-1(9),2(6),4,7,10,12-hexaen-4-yl}acetamide] were 9.16 and 6.97.
Regarding `C[C@@H]1C[C@H](n2c(CC(=O)NC(C)(C)c3ccccn3)nc3cnc4ccc(C#N)cc4c32)CCO1` [Compound 185, 2-{8-cyano-1-[(2R,4R)-2-methyloxan-4-yl]-1H-imidazo[4,5-c]quinolin-2-yl}-N-[2-(pyridin-2-yl)propan-2-yl]acetamide], the pIC50 on LRRK2 wild type enzyme was 9.38; in assay [1], 8.59.
For `C[C@@H]1C[C@H](n2c(CC(=O)NC[C@H]3CCOC3)nc3cnc4ccc(C#N)cc4c32)CCO1` [Compound 172, 2-{8-cyano-1-[(2R,4R)-2-methyloxan-4-yl]-1H-imidazo[4,5-c]quinolin-2-yl}-N-{[(3R)-oxolan-3-yl]methyl}acetamide], the negative-log IC50 (pIC50) is 9.25 against LRRK2 wild type enzyme and 7.42 in assay [1].
Take `C[C@@H]1C[C@H](n2c(CC(=O)Nc3cnn(C)c3)nc3cnc4ccc(Cl)cc4c32)CCO1` [Compound 193, 2-{8-chloro-1-[(2R,4R)-2-methyloxan-4-yl]-1H-imidazo[4,5-c]quinolin-2-yl}-N-(1-methyl-1H-pyrazol-4-yl)acetamide]: the pIC50 is 9.58 against LRRK2 wild type enzyme and 8.25 in assay [1].
With `C[C@@H]1C[C@H](n2c(CC(=O)NCCC(F)(F)F)nc3cnc4ccc(C#N)cc4c32)CCO1` [Compound 167, 2-{8-cyano-1-[(2R,4R)-2-methyloxan-4-yl]-1H-imidazo[4,5-c]quinolin-2-yl}-N-(3,3,3-trifluoropropyl)acetamide], the pIC50 against LRRK2 wild type enzyme was 9.20; in assay [1] it was 7.34.
Take `Cc1nn(C)c(C)c1NC(=O)Cc1nc2cnc3ccc(C#N)cc3c2n1[C@@H]1CCO[C@H](C)C1` [Compound 187, 2-{8-cyano-1-[(2R,4R)-2-methyloxan-4-yl]-1H-imidazo[4,5-c]quinolin-2-yl}-N-(1,3,5-trimethyl-1H-pyrazol-4-yl)acetamide]: the pIC50 is 9.62 on LRRK2 wild type enzyme and 8.02 in assay [1].
Taken in the same sequence, the figures for `C[C@@H]1C[C@H](n2c(CC(=O)N[C@@H]3CCOC3)nc3cnc4ccc(Cl)cc4c32)CCO1` [Compound 145, 2-{8-chloro-1-[(2R,4R)-2-methyloxan-4-yl]-1H-imidazo[4,5-c]quinolin-2-yl}-N-[(3R)-oxolan-3-yl]acetamide] were 9.21 and 7.87.
On to `C[C@@H]1C[C@H](n2c(CC(=O)NC[C@@H]3CCCO3)nc3cnc4ccc(C#N)cc4c32)CCO1` [Compound 154, 2-{8-cyano-1-[(2R,4R)-2-methyloxan-4-yl]-1H-imidazo[4,5-c]quinolin-2-yl}-N-{[(2S)-oxolan-2-yl]methyl}acetamide], for which the pIC50 against LRRK2 wild type enzyme is 9.17; in assay [1], 7.41.
Taken in the same sequence, the figures for `Cc1nnc(CNC(=O)Cc2nc3cnc4ccc(C#N)cc4c3n2[C@@H]2CCO[C@H](C)C2)o1` [Compound 257, N-[(5-methyl-1,3,4-oxadiazol-2-yl)methyl]{3-[(2R,4R)-2-methyltetrahydro-2H-pyran-4-yl]-12-cyano-3,5,8-triazatricyclo[7.4.0.0^2,6]trideca-1(9),2(6),4,7,10,12-hexaen-4-yl}acetamide] were 9.35 and 7.01.
Take `C[C@@H]1C[C@H](n2c(CC(=O)NC3(c4ncccn4)CC3)nc3cnc4ccc(C#N)cc4c32)CCO1` [Compound 360, N-[1-(2-pyrimidinyl)cyclopropyl]{3-[(2R,4R)-2-methyltetrahydro-2H-pyran-4-yl]-12-cyano-3,5,8-triazatricyclo[7.4.0.0^2,6]trideca-1,4,6,8,10,12-hexaen-4-yl}acetamide]: the pIC50 was 8.91 at LRRK2 wild type enzyme and 6.98 in assay [1].
